Measured values taken from patent publication US7148020B2, “Triple polypeptide complexes” (Arexis AB, priority 2001, dated 2006).
Ends that are not written are not given here.

Legend:
[1] = test system: CII(256-270)/Aq-specific T cell hybridoma cells; experiment: Antigen presentation, IL-2 production of T cell hybridoma measured by ELISA; assay type: cell-based, mice
Description: Antigen-presentation of polypeptides and triple helical polypeptide complexes was studied using A^q-restricted HDQ.9, A^q-restricted HRC.2, A^q-restricted HCQ.4, and DR4-restricted 1259 T cell hybridomas. Briefly, A^q-restricted spleen cells were derived from DBA/1 mice, and DR4-restricted spleen cells were derived from DR4^+/_H-2^−/_mice. T cell hybridoma cells (5×10^4 cells/well) were incubated with polypeptides and polypeptide complexes (20 μg/mL, dilution 1:5) and 5×10^5 spleen cells per well (normal or fixed in 1% paraformaldehyde for 15 min at room temperature) in a volume of 200 μL in 96-well plates for 24 hours. The reactivity of the hybridoma cells toward the polypeptides and triple helical polypeptide complexes, reflected by IL-2 production, was measured by ELISA using europium-labeled streptavidin (WALLAC, Turku).

[2] = test system: HCQ.4 T cell hybridoma cells; experiment: T cell hybridoma stimulation with Langerhans cells, IL-2 by CTLL assay; assay type: cell-based, mice; conditions: 10 μg/mL, Langerhans cells as antigen presenting cells, 24 hours (FIG. 3)
Description: Langerhans cells (dendritic cells) were prepared from ear skin of B10Q×DBA/1 mice and purified with selection on N418 marker. Once purified, Langerhans cells were mixed with HCQ.4 T cell hybridoma cells (1×10^5 cell/well), and the mixture incubated with media containing 10 μg/mL of [(Gly-Pro-Hyp)5-CII(259-274)-(Gly-Pro-Hyp)2]3LAhx (a linked polypeptide), CII(259-270) (an unlinked polypeptide), or native rat CII for 24 hours. After the 24-hour incubation, 0.5 μCi ^3H-thymidine/well (Radiochemical Centre, Amersham,UK) was added, and the cells incubated for an additional 18 hours. After this incubation, the supernatants were assayed for IL-2 content using a CTLL assay. Results were presented as means of duplicates.

[3] = test system: C3H.Q mice, arthritis induced with rat CII; experiment: Vaccination of adult mice, arthritis induced with rat CII; assay type: in vivo
Description: Male and female C3H.Q mice were used in two separate experiments. In each experiment, adult mice 8–12 weeks old were injected intradermally at the base of the tail with CII(256-270) (unlinked polypeptides), [(Gly-Pro-Hyp)5-CII(259-274)-(Gly-Pro-Hyp)2]3LAhx (linked polypeptides), or PBS. Specifically, each mouse received 100 μL of PBS or 100 μL of polypeptide (100 μg) emulsified in incomplete Freund's adjuvant.
After three weeks, the mice were treated with rat CII emulsified in complete Freund's adjuvant. Specifically, each mouse received 100 μL containing 100 μg of rat CII injected intradermally around the base of the tail. […] In addition, five weeks after treating the mice with rat CII, blood samples were collected to determine the antibody response.

[4] = test system: C1 mAb and M2.139 mAb; experiment: Immunoreactivity of conformation dependent monoclonal antibodies on coated microtiter wells; assay type: binding, mouse; conditions: compared with native CII (FIG. 8)
Description: Microtiter plates (Nunc, Wiesbaden, Germany) were coated overnight with [(Gly-Pro-Hyp)5-CII(358-366Hyp-369)-(Gly-Pro-Hyp)2]3LAhx or [(Gly-Pro-Hyp)5-CII(551-552Hyp-564)-(Gly-Pro-Hyp)2]3LAhx at 4° C. and blocked with 2% BSA in phosphate buffered saline (PBS, pH 7.4) for one hour. The presentation of a native collagen conformation on the plastic surface of the microtiter well was controlled by the immunoreactivity of two mouse monoclonal antibodies (C1 mAb having specificity for the CII(358-369) region and M2.139 mAb having specificity for the CII(551-564) region) that recognize the CII epitopes in a conformation dependent manner as confirmed in FIG. 8. Identical titration curves for the native CII and the synthetic polypeptides indicate that the synthetic polypeptides have a perfect image of the conformational epitope. […] Heat denaturation was achieved by heating the CII polypeptide to greater than 50° C. for two hours prior to the coating of the microtiter wells.

[5] = test system: monoclonal anti-CII antibody M2 88; experiment: ELISA, coated polypeptide complexes capture anti-CII monoclonal antibody; assay type: binding; conditions: monoclonal antibody M2 88, Mouse; coated wells
From the text: (§1) Triple helical polypeptide complexes [(Gly-Pro-Hyp)5-CII(358-366Hyp-369)-(Gly-Pro-Hyp)2]3LAhx, [(Gly-Pro-Hyp)5-CII(259-273Hyp-274)-(Gly-Pro-Hyp)2]3LAhx, [(Gly-Pro-Hyp)5-CII(259-273Hyp-274)-CII(359-366Hyp)-(Gly-Pro-Hyp)2]3LAhx, [(Gly-Pro-Hyp)5-CII(494-504Hyp)-(Gly-Pro-Hyp)2]3LAhx, and [(Gly-Pro-Hyp)5-CII(551-552Hyp-564)-(Gly-Pro-Hyp)2]3LAhx were used in an ELISA to detect anti-CII-antibodies. Specifically, Immulon2 HB (Dynex/Technologies Inc., USA) plates were coated with [(Gly-Pro-Hyp)5-CII(358-366Hyp-369)-(Gly-Pro-Hyp)2]3LAhx, [(Gly-Pro-Hyp)5-CII(259-273Hyp-274)-(Gly-Pro-Hyp)2]3LAhx, [(Gly-Pro-Hyp)5-CII(259-273Hyp-274)-CII(359-366Hyp)-(Gly-Pro-Hyp)2]3LAhx, [(Gly-Pro-Hyp)5-CII(494-504Hyp)-(Gly-Pro-Hyp)2]3LAhx, and [(Gly-Pro-Hyp)5-CII(551-552Hyp-564)-(Gly-Pro-Hyp)2]3LAhx in a volume of 50 μL/well and at a concentration of 5 μg/mL. Wells coated with native rat CII (rCII; 10 μg/mL) were used as a positive control, while negative controls included wells coated with native rat type I collagen (rCI; 10 μg/mL) and wells coated with phosphate-buffered saline (PBS; pH 7.4).
(§2) After coating, the plates were incubated for at least one hour in a humid chamber at 4° C. After incubation, the plates were washed three times with PBS using an automatic microtiter plate-washing device (Skan Washer 300, Skatron instruments) and incubated with 50 μL/well of bovine serum albumin (BSA; Sigma, St. Louis, Mo.; 10 mg/mL in PBS) for two hours at 20° C. The wells were washed five times with PBS using ELISA washing equipment (Skatron, Norway) and incubated with a monoclonal anti-CII antibody (50 μL/well in titrated concentrations) for two hours at 20° C. After this two hour incubation, the plates were washed with PBS-Tween and incubated with a secondary enzyme-labeled antibody for two hours at 20° C. For detection of mouse antibodies, peroxidase labeled goat anti-mouse IgG (H+L) (Jackson ImmunoResearch Laboratories, Inc., USA) were used. For detection of rat antibodies, peroxidase labeled goat anti-rat IgG (H+L) (Jackson ImmunoResearch Laboratories, Inc. USA) were used.
(§3) After washing the wells with PBS, the assay was developed using the ABTS system (Boehringer-Mannheim, Mannheim, Germany), and the absorbance levels determined at 405 nm (ELISA reader, Titertek). Titers and concentrations of the monoclonal antibodies were calculated using limiting dilution (ELISA software: HyperELISA 3.0).

[6] = test system: monoclonal anti-CII antibody 126.30; experiment: as above; assay type: binding; conditions: monoclonal antibody 126.30, Rat; coated wells
From the text: as §1, §2, §3

[7] = test system: monoclonal anti-CII antibody EB2; experiment: as above; assay type: binding; conditions: monoclonal antibody EB2, Mouse; coated wells
From the text: as §1, §2, §3

[8] = test system: monoclonal anti-CII antibody 145.322; experiment: as above; assay type: binding; conditions: monoclonal antibody 145.322, Rat; coated wells
From the text: as §1, §2, §3

[9] = test system: monoclonal anti-CII antibody M2 76; experiment: as above; assay type: binding; conditions: monoclonal antibody M2 76, Mouse; coated wells
From the text: as §1, §2, §3

[10] = test system: monoclonal anti-CII antibody M2 84; experiment: as above; assay type: binding; conditions: monoclonal antibody M2 84, Mouse; coated wells
From the text: as §1, §2, §3

[11] = test system: monoclonal anti-CII antibody 125.5; experiment: as above; assay type: binding; conditions: monoclonal antibody 125.5, Rat; coated wells
From the text: as §1, §2, §3

[12] = test system: monoclonal anti-CII antibody M2 87; experiment: as above; assay type: binding; conditions: monoclonal antibody M2 87, Mouse; coated wells
From the text: as §1, §2, §3

[13] = test system: monoclonal anti-CII antibody 146.50; experiment: as above; assay type: binding; conditions: monoclonal antibody 146.50, Rat; coated wells
From the text: as §1, §2, §3

[14] = test system: monoclonal anti-CII antibody M2 139; experiment: as above; assay type: binding; conditions: monoclonal antibody M2 139, Mouse; coated wells
From the text: as §1, §2, §3

[15] = test system: monoclonal anti-CII antibody 122.9; experiment: as above; assay type: binding; conditions: monoclonal antibody 122.9, Rat; coated wells
From the text: as §1, §2, §3

[16] = test system: monoclonal anti-CII antibody EB63; experiment: as above; assay type: binding; conditions: monoclonal antibody EB63, Mouse; coated wells
From the text: as §1, §2, §3

[17] = test system: monoclonal anti-CII antibody 126.35; experiment: as above; assay type: binding; conditions: monoclonal antibody 126.35, Rat; coated wells
From the text: as §1, §2, §3

[18] = test system: CD4+ T cells; experiment: IL-2 response of CD4+ T cells upon in vitro stimulation, two-color flow cytometry; assay type: cell-based, human; conditions: 10 μg per mL plus anti-CD28
[19] = test system: HCQ.4 hybridoma; experiment: Detection of transgenic CII from skin grafts by T cell hybridoma, CTLL assay; assay type: cell-based, mice; conditions: HCQ.4, specific for non-glycosylated CII(256-270)
Description: (§4) T cell hybridomas HCQ.4 and HCQ.10, specific for CII(256-270) without posttranslational modification and with glucose on hydroxylysin at position K264 respectively, were used to detect transgenic […] prepared from TSC or recipients grafts at the end of arthritis experiments as described earlier (Michaelsson et al., J. Exp. Med., 180:745–749 (1994) and Corthay et al., Eur. J. Immunol., 28:2580–2590 (1998)). Briefly, syngeneic spleen cells were incubated with titrated amount of antigen at 5×10^5/mL together with the hybridoma cells at 5×10^4/mL. The interleukin-2 production was detected after 24 hours by transferring 100 μL of the supernatant to new plates. Plates were snap-frozen to avoid any contamination of living cells before addition of 10^4 CTLL/well. CTLL were incubated for 24 hours before thymidine-labeling and harvesting 15–18 hours later.

[20] = test system: HCQ.10 hybridoma; experiment: as above; assay type: cell-based, mice; conditions: HCQ.10, specific for glycosylated CII(256-270)
Description: as §4

Question: With “GEPGIAGFKGEQGPK [CII(256-270), non-glycosylated, unlinked polypeptide]” as the substance, how does the “stimulation of T cell hybridoma cells (IL-2 production)” value ([1]; non-fixed APC) read?
Answer: The value was “potent stimulators”.

Question: What about the “stimulation of T cell hybridoma cells (IL-2 production)” value ([1]; presented by formalin-fixed spleen cells (FIGS. 25–26)) of the same substance?
Answer: Its value is “stimulated”.

Question: “[(Gly-Pro-Hyp)5-CII(259-274)-(Gly-Pro-Hyp)2]3LAhx [linked polypeptide composition]” was tested. Which “stimulation of T cells (IL-2 content, CTLL assay, CPM)” value [2] did it give?
Answer: Its value is “stimulated T cells”.

Question: And the development of arthritis ([3]; adult C3H.Q mice, 100 μg intradermally in incomplete Freund's adjuvant (FIG. 6))?
Answer: Its development of arthritis is “abrogated development of arthritis”.

Question: What about the antibody response ([3]; five weeks after treating the mice with rat CII) of the same substance?
Answer: Its antibody response is “lower”.

Question: How did the “binding of C1 mAb / M2.139 mAb, titration curves” value [4] turn out when “heat denatured CII: CII polypeptide heated to greater than 50° C. for two hours prior to coating” was run?
Answer: Its value is “does not bind”.

Question: Which “end point titer value in ng antibody/mL” value [5] does the source give for “rCII: native rat type II collagen, positive control” here?
Answer: The value was 10 ng antibody/mL.

Question: And the “end point titer value in ng antibody/mL” value [6]?
Answer: Its value is 10 ng antibody/mL.

Question: And the “end point titer value in ng antibody/mL” value [7]?
Answer: The value was less than 10 ng antibody/mL.

Question: And the “end point titer value in ng antibody/mL” value [8]?
Answer: The value was 100 ng antibody/mL.

Question: What about the “end point titer value in ng antibody/mL” value [9] of the same substance?
Answer: Its value is 10 ng antibody/mL.

Question: What about the “end point titer value in ng antibody/mL” value [10] of the same substance?
Answer: The value was 10 ng antibody/mL.

Question: And the “end point titer value in ng antibody/mL” value [11]?
Answer: The value was 10 ng antibody/mL.

Question: What about the “end point titer value in ng antibody/mL” value [12] of the same substance?
Answer: Its value is 10 ng antibody/mL.

Question: What about the “end point titer value in ng antibody/mL” value [13] of the same substance?
Answer: Its value is 100 ng antibody/mL.

Question: What about the “end point titer value in ng antibody/mL” value [14] of the same substance?
Answer: Its value is 10 ng antibody/mL.

Question: And the “end point titer value in ng antibody/mL” value [15]?
Answer: Its value is 10 ng antibody/mL.

Question: And the “end point titer value in ng antibody/mL” value [16]?
Answer: Its value is 100 ng antibody/mL.

Question: What about the “end point titer value in ng antibody/mL” value [17] of the same substance?
Answer: Its value is 10 ng antibody/mL.

Question: And the “stimulation of T cells (IL-2 content, CTLL assay, CPM)” value [2]?
Answer: The value was “did not”.

Question: How did the “IL-2 response of CD4+ T cells (percent of IL-2-producing CD4+ T cells)” value ([18]; patient RA 1) turn out when tetanus toxoid [TT] was run?
Answer: Its value is 0.38%.

Question: And the “IL-2 response of CD4+ T cells (percent of IL-2-producing CD4+ T cells)” value ([18]; patient RA 2)?
Answer: The value was 0.61%.

Question: And the “IL-2 response of CD4+ T cells (percent of IL-2-producing CD4+ T cells)” value ([18]; patient RA 3)?
Answer: The value was 0.20%.

Question: How did the “stimulation of hybridoma (IL-2, CTLL assay)” value [19] turn out when “whole CII protein: whole type II collagen protein” was run?
Answer: The value was “respond”.

Question: What about the “stimulation of hybridoma (IL-2, CTLL assay)” value [20] of the same substance?
Answer: The value was “respond”.
